Measured values reported in US8957086B2, “Compounds and methods of treating brain disorders” (The Board of Trustees of the University of Illinois, priority 2010, dated 2015).
Entries after “also recorded” stand apart in the source; their conditions may differ. Each block holds one compound with its values, some of them ahead of it.

Columns and labels:
[1] = Stability in phosphate buffer (pH 7.4) monitored using HPLC; format: physicochemical; conditions: pH 7.4, HPLC
From the text: The stability of compounds of structural formula (II) in phosphate buffer (pH 7.4) was monitored using HPLC.

[2] = test system: primary rat cortical neuron cultures; assay: Neuroprotection in primary rat cortical neuron cultures subjected to oxygen-glucose deprivation (OGD), MTT and LDH; format: cell-based; conditions: primary cultured rat cortical neurons, OGD 2 h + 24 h reoxygenation, 50 μM
Experimental: Neuroprotection by compounds of structural formula (I) in neurons using oxygen-glucose deprivation (OGD) followed by recovery for 24 hours in primary rat cortical neuron cultures, measured by LDH release and MTT viability was determined (FIG. 1).
Test compounds are compared to vehicle controls and the known neuroprotective agent CMZ. DMSO is dimethyl sulfoxide. Neuroprotection is represented by (i) a high cell viability relative to control as measured by the MIT assay and (ii) a low LDH activity as measured by assay of LDH. The abscissa in FIGS. 1A and 1B identify the compounds tested by GN number. The structures of AR-OH (also referred to as #00) and AR-N3 (also referred to as #9 or GN-9) are provided above. The structure of AR (also referred to as #10) and CMZ are as follows: […]
FIG. 1A illustrates the evaluation of neuroprotection in primary neurons subject to transient OGD assayed by MTT. […] Cell viability was measured 24 hours after reperfusion by MTT assay. Cell viability percentage was calculated relative to 100% protection from CMZ against OGD-reperfusion injury. […]
FIG. 1B illustrates the evaluation of neuroprotection in primary rat neurons subject to transient OGD assayed by LDH. […] Cell viability was measured 24 hours after reperusion by […]. Cell viability percentage was calculated relative to 100% cytoxicity from OGD-reperfusion in the presence of vehicle (DMSO). […]

scopolamine treated mice = assay: Step through passive avoidance (STPA) in scopolamine treated mice; format: in vivo; conditions: i.p.
From the text: The scopolamine treatment results in mice having an attenuated cognitive function. STPA (step through passive avoidance task) is widely used to test long-term memory. The STPA apparatus consists of a two-compartment acrylic box with an illuminated side (15×12×12 cm) connected to a dark side (15×12×12 cm) by a vertical door. The dark side is equipped with an electric grid floor. During the habituation, animals were habituated to the normal behavior of rapidly translocating to the dark from the light side, where they were initially placed. Habituation trials are continued until latency of entering the dark side for each animal is less than 30 seconds. Animals that cannot pass this screening phase are excluded from the study. During the training, animals were trained by receiving an aversive electrical shock (0.5 mA, 2 sec), triggered by entry to the dark compartment, until the latency of entering the dark side reach 300 seconds. At 24 and 72 hours post-training, the animals again are individually placed in the light compartment and the latency to enter the dark compartment, without shock stimulus, is recorded. Statistical analysis of the latency data was performed with one-way ANOVA followed by Bonferroni multiple comparison test. For STPA tests using naïve animals, each animal was administered two ip injections. […]

[3] = test system: primary rat glial cultures; assay: Attenuation of inflammatory response (nitrite production, Griess assay) in LPS-treated primary rat glial cultures; format: cell-based; conditions: primary rat glial cells, LPS/OGD, nitrite by Griess assay
Experimental: Attenuation of cytokine and inflammatory response by compounds of structural formula (I) were measured by induction of NOS reflected by inhibition of nitrite production in LPS/IFNγ treated primary rat glial cultures.
Primary mixed glia cultures were obtained as described previously (Vairano et al., 2002). Briefly, 1-2 day old Sprague Dawley rat pups were used to prepare primary mixed glial cultures. Cortices were dissected and meninges were removed. Tissues were cut into small pieces and transferred into PBS (without Ca^2+ and Mg^2+) containing 0.125% Trypsin and DNAse 35500 KU/ml, then incubated at 37° C. for 20 min. The cells were dissociated mechanically resuspended in DMEM (10% FBS), then grown in a T-75 flask. After 11-13 days in culture, the cells were replated at 2×10^5 cells/cm^2 in 96-well plates. Cells were used the next day.
Primary cultured cortical glia were incubated with LPS ([…]) in deoxygenated, glucose-free solution, pH 7.4, containing the following (in mM): NaCl 116, CaCl2 1.8, MgSO4 0.8, KCl 5.4, NaH2PO4 1, NaHCO3 14.7, HEPES 10. The cells were placed in a humidified 37° C. incubator (95% N2, 5% CO2) for 2 hours, then conditioned DMEM media containing LPS or PBS were given back to the cells. The tested compounds ([…]) or MAPK inhibitor (SB203580, […]) were present during and after the OGD. […] Cell viability was measured later by MTT assay. […]

[4] = test system: CREB phosphorylated at serine 133; assay: CREB phosphorylated at serine 133 in LaFerla 3×Tg AD mice; format: in vivo; conditions: 11 week treatment
From the text: (§1) Amyloid load also was reduced by drug treatment (data not shown).

[5] = Brain penetration in WT mice after i.p. injection, LC-MS (MRM); format: in vivo; conditions: i.p. 1 mg/kg, S/N ratio
Experimental: Compounds of structural formula (II), i.e., GN-29 and GN-205, were tested for an ability to penetrate the brain. WT mice were given an i.p. injection at a dose of 1 mg/kg, which is equivalent to transgenic mice studies. The presence of drugs in brain tissue was measured by LC-MS using MRM methods.

TNF-α = TNF-α ELISA on cortical/hippocampal protein homogenates of LaFerla 3×Tg AD mice; format: in vivo; conditions: 11 week treatment
From the text: as §1

LaFerla 3×Tg AD Mice = assay: STPA latency in LaFerla 3×Tg AD mice after 11 week treatment; format: in vivo; conditions: for latency after 24 h in STPA: 11 week treatment
[6] = test system: primary cortical cultures treated with human Aβ1-42; assay: Neuroprotection in primary neurons treated with Aβ42 oligomers, with picrotoxin preincubation (MTT, LDH); format: cell-based; conditions: 100 μM picrotoxin 1 h preincubation, test compounds 50 μM, Aβ1-42 250 nM, 5 days
Experimental: FIGS. 3A and 3B illustrate neuroprotection in response to amyloid neurotoxicity afforded by compounds of structural formula (I). FIGS. 3A and 3B show neuroprotection in primary neurons treated with Aβ42. In particular, primary cortical cultures at 10-11 DIV were preincubated with 100 μM of picrotoxin for one hour, then perfused with test compounds at 50 μM. Soluble oligomers of human Aβ1-42 then were added at a physiologically relevant concentration of 250 nM. Cultures then were incubated for 5 days, after which time MTT and LDH assays were performed. Results were normalized to untreated DMSO and treated DMSO and statistical analysis was performed with ANOVA, with post-hoc Dunnet's MCT comparing to untreated DMSO, […], ***=p<0.001. Picrotoxin acts as a noncompetitive antagonist for the GABAA receptor chloride channels. It is therefore a channel blocker rather than a receptor antagonist.

Compound: Cc1ncsc1C(c1ccccc1)n1cc(-c2cccnc2)nn1 (stereo not shown) [GN-12]
neuroprotection [2]: substantial neuroprotection; also recorded: superior neuroprotective and anti-neuroinflammatory activities
reversal of cognition deficit (STPA) (scopolamine treated mice): reverse a cognition deficit
attenuation of inflammatory response [3]: attenuation of inflammatory response; also recorded: superior neuroprotective and anti-neuroinflammatory activities

Compound: Cc1ncsc1CC[N+](=O)[O-] [GT-1061, reference compound]
levels of CREB phosphorylated at serine 133 [4]: 1.07±0.11 units/mg protein
levels of TNF-α (TNF-α): 2.18±0.34 μg/mg protein
latency after 24 h in STPA (LaFerla 3×Tg AD Mice): 248 ± 35 s

Compound: picrotoxin
effect of picrotoxin on neuroprotection by test compounds [6]: blocks the neuroprotective actions of the test compounds

The next lines start with results.

stability in phosphate buffer [1]: excellent stability
Compound: Cc1ncsc1C(OCCOCCO[N+](=O)[O-])c1ccccc1 (stereo not shown) [GM-30]

presence in brain tissue (bioavailability in the brain) [5]: highly bioavailable in the brain
Compound: Cc1ncsc1C(CO[N+](=O)[O-])c1ccccc1 (stereo not shown) [GN-29]
levels of CREB phosphorylated at serine 133 [4]: 1.2±0.16 units/mg protein
levels of TNF-α (TNF-α): 1.70±0.09 μg/mg protein
latency after 24 h in STPA (LaFerla 3×Tg AD Mice): 277 ± 14 s
cognitive deficit in the transgenic mouse model (LaFerla 3×Tg AD Mice; in words): reverses a cognitive deficit

stability in phosphate buffer [1]: excellent stability
Compound: Cc1ncsc1C(NC(=O)C1(CO[N+](=O)[O-])CC1)c1ccccc1 (stereo not shown) [GN-44]

stability in phosphate buffer [1]: excellent stability
Compound: Cc1ncsc1C(NC(=O)OCCCCO[N+](=O)[O-])c1ccccc1 (stereo not shown) [GN-203]

presence in brain tissue (bioavailability in the brain) [5]: highly bioavailable in the brain
Compound: Cc1ncsc1C(CO[N+](=O)[O-])n1cc(-c2cccnc2)nn1 (stereo not shown) [GN-205]
